According to paper PMC6387968, “An in vitro ADME and in vivo Pharmacokinetic Study of Novel TB-Active Decoquinate Derivatives” (Frontiers in Pharmacology, 2019):

Legend:
[1] = for Autosampler stability (48 h), Low / Stability, murine whole-blood (-80 °C freeze-thaw), Low / Stability, murine whole-blood (ice, 2 h), Low: 10 ng/mL; for Autosampler stability (48 h), High / IV formulation stability, High / Oral formulation stability, High / Stability, murine whole-blood (-80 °C freeze-thaw), High / Stability, murine whole-blood (ice, 2 h), High: 4000 ng/mL; for IV formulation stability, High / Oral formulation stability, High / Stability, murine whole-blood (ice, 2 h), Low / Stability, murine whole-blood (ice, 2 h), High: 2 h; for Stability, murine whole-blood (-80 °C freeze-thaw), Low / Stability, murine whole-blood (-80 °C freeze-thaw), High / Stability, murine whole-blood (ice, 2 h), Low / Stability, murine whole-blood (ice, 2 h), High: mouse
Method: The LC-MS/MS method used was partially validated by assessing recovery from mouse whole-blood, bench-top stability (3 h), auto-sampler stability (48 h), formulation stability (oral and IV, 2 h), freeze-thaw stability (3 cycles), and matrix effects (details in Supplementary Material). Partial method validation, comprising several tests to determine whether the compounds were stable in each possible experimental situation involved with sample collection, storage, and processing, was performed. These tests included: (i) compound stability in mouse whole-blood (on ice and at -80°C), (ii) compound stability in the autosampler, (iii) compound stability in oral and intravenous formulations, (iv) matrix effects (ME), and (v) compound recovery. In this study, stability is reported as a percentage, reflecting the stability of the compound in relation to a fresh sample prepared just before analysis.

[2] = tested on: Chinese hamster ovarian (CHO) cell-lines; settings: cited from earlier work
Mtb H37Rv = tested on: Mtb H37Rv; set-up: method as in Beteck et al., 2018; settings: in vitro, Mtb H37Rv; ref Beteck et al., 2018; cited from earlier work
in vitro [3] = type: in vitro ADME; settings: microsomes
Method: (§1) RMB041, -043, and -073 ([…]) prepared in DMSO were incubated separately with 530 μL mouse and human microsomes (0.4 mg/mL) at 37°C with the cofactor NADPH (1 mM). Compounds were assessed at 0 and 60 min. The reaction was stopped by the addition of ice-cold ACN containing IS (carbamazepine, 23.6 ng/mL). The samples were analyzed via LC-MS/MS using the instrumentation and conditions described above. The in vitro half-life, intrinsic clearance rate, and hepatic extraction ratio were predicted using results from this assay in the following equations ([Obach, 1999]). Metabolic stability was assessed as the compound’s depletion from a starting concentration of […] over 1 h in mouse and human microsomal fractions. The in vitro half-life can be predicted from this assay. The linear regression from a graph relating natural logarithmic percentage of the compound remaining versus the incubation time was used to calculate the half-life, CLint, and EH.

in vitro [4] = type: in vitro ADME
Method: Compound solutions prepared in DMSO were diluted in phosphate buffer (final concentration = 1 μg/mL), and were spiked into human plasma and microsomal fractions (total volume = 1 mL). Aliquots were then transferred in duplicate to: (i) a final concentration plate that was immediately quenched with 23.6 ng/mL internal standard (IS, carbamazepine) in ACN, (ii) a degradation control, which was placed in a water bath at 37°C for 4 h, and (iii) ultracentrifuge tubes, which were centrifuged for 4 h at 37°C and 30 000 × g. All reactions were stopped by the addition of ACN containing 23.6 ng/mL carbamazepine. The samples were subjected to liquid chromatography-tandem mass spectrometry (LC-MS/MS) analysis on an AB Sciex 4000 Q Trap hybrid triple quadrupole linear ion-trap MS (AB Sciex, Framingham, MA, United States) coupled to an Agilent 1200 HPLC (Agilent) with a reverse-phase Gemini-C18 analytical column (5 μm, 50 mm × 2 mm; Phenomenex) at 35°C. Mobile phases comprised 0.1% FA in water, and 0.1% FA in ACN. The flow rate was 600 μL/min with a run time of 6 min. A gradient elution was employed (Table 2).

in vitro [5] = type: in vitro ADME; settings: for EH (hepatic extraction ratio) Human / EH (hepatic extraction ratio) Mouse: 0.1 M; for half-life at 0.1 M / microsomal CLint at 0.1 M: microsomes
Method: as §1, with “1999]). […] EH=Fu × CLint/QH+Fu × CLint” for “1999]).”, “compound's” for “compound’s”

physchem = type: physicochemical; settings: 22 °C, pH 7.4, aqueous buffer, kinetic from dmso stock
Method: Stock solutions of each compound prepared in DMSO (10 mM) were spiked in duplicate into phosphate buffer at pH 7.4 (final concentration = 200 μM). Calibration samples were prepared by spiking individual compounds in DMSO at 11, 100, and 220 μM. These were used to generate a calibration curve to determine compound concentrations in the test samples. The samples were agitated for 2 h using a plate shaker (500 rpm, 22°C). Approximately 150 μL of the resulting supernatant was transferred to a 96-well analysis plate and the calibration and test samples were analyzed via HPLC with a diode array detector (Agilent 1200 Rapid Resolution HPLC, Agilent Technologies, Santa Clara, CA, United States) comprising a reverse-phase Gemini-C18 analytical column (5 μm, 50 mm × 2 mm; Phenomenex, Torrance, CA, United States). Mobile phases comprised 0.1% FA in water (A) and 0.1% FA in ACN (B). The run lasted 3 min and a gradient elution method was used (Table 1).

[6] = human, plasma, Plasma protein (fraction unbound)
[7] = human, plasma, percentage plasma protein binding

Row | SMILES | Autosampler stability (48 h), Low [1] [%] | Autosampler stability (48 h), High [1] [%] | IV formulation stability, High [1] [%] | Oral formulation stability, High [1] [%] | Stability, murine whole-blood (-80 °C freeze-thaw), Low [1] [%] | Stability, murine whole-blood (-80 °C freeze-thaw), High [1] [%] | Stability, murine whole-blood (ice, 2 h), Low [1] [%] | Stability, murine whole-blood (ice, 2 h), High [1] [%] | IC50 [2] [µM] | 90% minimum inhibitory concentration (MIC90) (Mtb H37Rv) [µM] | half-life at 0.1 M (in vitro [3]) [h] | microsomal CLint at 0.1 M (in vitro [3]) [µL/min/mg] | fraction unbound at 4 h, 1 μg/mL (in vitro [4]; human, microsomes) | fraction unbound at 4 h, 1 μg/mL (in vitro [4]; [6]) | fraction unbound at 4 h, 1 μg/mL (in vitro [4]; [7]) | fraction unbound at 4 h, 1 μg/mL (in vitro [4]; microsomes) | EH (hepatic extraction ratio) Human (in vitro [5]) | EH (hepatic extraction ratio) Mouse (in vitro [5]) | half-life at 0.1 M (in vitro [5]; human) [h] | microsomal CLint at 0.1 M (in vitro [5]; human) [µL/min/mg] | also measured
1 | CCCCCCCCCCOc1cc2c(=O)c(C(=O)NCCOCCO)cn(CC)c2cc1OCC [RMB041] | 92.1 | 94.1 | 90.3 | 98.0 | 99.2 | 98.7 | 89.2 | 91.2 | 20 | 1.61 | > 2.5 | < 20 | 0.053 | 0.1 | 0.104 | 0.06 | <0.43 | <0.3 | > 2.5 | 16 | half-life at 0.1 M (in vitro [5]; mouse): > 2.5 h; microsomal CLint at 0.1 M (in vitro [5]; mouse): 26.8 µL/min/mg; solubility kinetic at 2 h (physchem): > 150 µM
2 | CCCCCCCCCCOc1cc2c(=O)c(C(=O)NCCNCCO)cn(CC)c2cc1OCC [RMB043] | 99.8 | 99.1 | 93.1 | 89.0 | 91.3 | 92.5 | 102.4 | 109.0 | 80 | 4.18 | < 1.67 | < 110 | 0.053 | 0.23 | 0.221 | 0.06 | 0.4 | 0.51 | 1.42 | 83 | half-life at 0.1 M (in vitro [5]; mouse): 1 h; microsomal CLint at 0.1 M (in vitro [5]; mouse): 109 µL/min/mg; solubility kinetic at 2 h (physchem): > 150 µM
3 | CCCCCCCCCCOc1cc2c(=O)c(C(=O)NCCOCCO)cn(CCO)c2cc1OCC [RMB073] | 105.3 | 102.0 | 98.8 | 89.3 | 89.5 | 97.3 | 87.6 | 92.3 | 33.9 | 1.88 | > 2.5 | < 20 | 0.114 | 0.16 | 0.156 | 0.11 | <0.43 | <0.3 | > 2.5 | 7.78 | half-life at 0.1 M (in vitro [5]; mouse): > 2.5 h; microsomal CLint at 0.1 M (in vitro [5]; mouse): 15 µL/min/mg; solubility kinetic at 2 h (physchem): > 150 µM
